Laboratory results from patent publication US11279733B2, “Peptide antibiotics” (priority 2017, dated 2022).
In brackets after ≈: the same amount, converted by molar mass. Positions of bridges follow the written chain, without caps; N, C: chain ends. Non-standard residues stand in square brackets, D forms with d. Residues, ends and D or L forms follow the SMILES beside them. *: point of attachment. Isonicotinoyl(2-Ph) = O=C(c1ccnc(-c2ccccc2)c1)*; Decanoyl(3R-OH) = CCCCCCC[C@@H](O)CC(=O)*; dDab = NCC[C@@H](N)C(=O)O; Dab = NCC[C@H](N)C(=O)O

Key:
[1] = tested on: A. baumannii ATCC 19606; conditions: ATCC 19606
Procedure, shortened: (§1)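 Mid-log cultures grown in Mueller Hinton broth at 37° C were tested by 2-fold broth microdilution at 5×10^5 CFU/mL final. Compounds were dissolved in water and tested over a final range of 32 to 0.015 μg/mL.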

[2] = tested on: A. baumannii GN_093 PmxR; conditions: GN 093 PmxR
Procedure, shortened: as §1

[3] = tested on: E. coli ATCC 25922; conditions: ATCC 25922
Procedure, shortened: as §1

[4] = tested on: K. pneumoniae ATCC 13883; conditions: ATCC 13883
Procedure, shortened: as §1

[5] = tested on: K. pneumoniae ATCC 700603, MDR; conditions: ATCC 700603
Procedure, shortened: as §1

[6] = tested on: K. pneumoniae ATCC BAA-2146, NDM-1 pos; conditions: ATCC BAA-2146
Procedure, shortened: as §1

[7] = tested on: K. pneumoniae GN_102 PmxR; conditions: GN 102 PmxR
Procedure, shortened: as §1

[8] = tested on: K. pneumoniae GN_106, PmxR; conditions: GN 106, PmxR
Procedure, shortened: as §1

[9] = tested on: P. aeruginosa ATCC 27853; conditions: ATCC 27853
Procedure, shortened: as §1

[10] = tested on: P. aeruginosa GN_043, PmxR; conditions: P. aeruginosa GN_043, PmxR
Procedure, shortened: as §1

[11] = tested on: P. aeruginosa GN_105, PmxR; conditions: GN 105, PmxR
Procedure, shortened: as §1

[12] = tested on: S. aureus ATCC 25923, MSSA; conditions: ATCC 25923
Procedure, shortened: as §1

[13] = in vitro; conditions: human
Procedure, shortened: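 HK2 cells were seeded at 2000 per well in DMEM/F12 with 10% FBS and left to attach for 24 h at 37 °C, 5% CO2. They were then exposed for 24 h to 3-fold peptide dilutions starting from 600 μM solutions in quadruplicate. LDH release was read at 450 nm, and CC50 was fitted from dose-response curves.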

| Structure (SMILES) | MIC A. baumannii ATCC 19606 [1] [µg/mL] | MIC A. baumannii GN_093 PmxR [2] [µg/mL] | MIC E. coli ATCC 25922 [3] [µg/mL] | MIC K. pneumoniae ATCC 13883 [4] [µg/mL] | MIC K. pneumoniae ATCC 700603, MDR [5] [µg/mL] | MIC K. pneumoniae ATCC BAA-2146, NDM-1 pos [6] [µg/mL] | MIC K. pneumoniae GN_102 PmxR [7] [µg/mL] | MIC K. pneumoniae GN_106, PmxR [8] [µg/mL] | MIC P. aeruginosa ATCC 27853 [9] [µg/mL] | MIC P. aeruginosa GN_043, PmxR [10] [µg/mL] | MIC P. aeruginosa GN_105, PmxR [11] [µg/mL] | MIC S. aureus ATCC 25923, MSSA [12] [µg/mL] | CC50 at 24 h [13] [µM] |
| --- | --- | --- | --- | --- | --- | --- | --- | --- | --- | --- | --- | --- | --- |
| CCCCCCC[C@@H](O)CC(=O)N[C@H](CCN)C(=O)N[C@H]1CCNC(=O)[C@H](CC(C)C)NC(=O)[C@H](CCN)NC(=O)[C@H](CCN)NC(=O)[C@H](CC(C)C)NC(=O)[C@@H](C)NC(=O)[C@H](CCN)NC1=O [compound 5006, 3(R)OH-nC9CO-D-Dab-cyc[L-Dab-L-Dab-D-Ala-L-Leu-L-Dab-L-Dab-L-Leu]] ({Decanoyl(3R-OH)}-[dDab][Dab][Dab][dA]L[Dab][Dab]L; lactam 2-C) | >32 | >32 | 16 (≈ 16.5 µM) | 32 (≈ 33 µM) | >32 | 32 (≈ 33 µM) | 8 (≈ 8.26 µM) | 32 (≈ 33 µM) | 16 (≈ 16.5 µM) | 8 (≈ 8.26 µM) | 32 (≈ 33 µM) | >32 | 277 |
| CC(C)C[C@@H]1NC(=O)[C@@H](Cc2ccccc2)NC(=O)[C@H](CCN)NC(=O)[C@@H](NC(=O)[C@@H](CCN)NC(=O)c2ccnc(-c3ccccc3)c2)CCNC(=O)[C@H]([C@@H](C)O)NC(=O)[C@H](CCN)NC(=O)[C@H](CCN)NC1=O [compound 6405, 3Phe4-PyCO-D-Dab-cyc[L-Dab-L-Dab-D-Phe-L-Leu-L-Dab-L-Dab-L-Thr]] ({Isonicotinoyl(2-Ph)}-[dDab][Dab][Dab][dF]L[Dab][Dab]T; lactam 2-C) | >64 | >32 | >64 | >64 | >64 | >64 | >32 | >32 | 8 (≈ 7.67 µM) | >32 | >32 | >32 | > 300 |
| CCCCCCC[C@@H](O)CC(=O)N[C@H](CCN)C(=O)N[C@H]1CCNC(=O)[C@H]([C@@H](C)O)NC(=O)[C@H](CCNC(=O)[C@@H](N)CCCNC(=N)N)NC(=O)[C@H](CCN)NC(=O)[C@H](CC(C)C)NC(=O)[C@@H](Cc2ccccc2)NC(=O)[C@H](CCN)NC1=O [compound 5603, 3(R)OH-nC9CO-D-Dab-cyc[L-Dab-L-Dab-D-Phe-L-Leu-L-Dab-L-Dab(L-Arg)-L-Thr]] ({Decanoyl(3R-OH)}-[dDab][Dab][Dab][dF]L[Dab][Dab](Arg)T; lactam 2-C) | >32 | >32 | 32 (≈ 26.9 µM) | >32 | 16 (≈ 13.5 µM) | >32 | >32 | >32 | 8 (≈ 6.73 µM) | 32 (≈ 26.9 µM) | 32 (≈ 26.9 µM) | >32 | 103 |
| CCCCCCC[C@@H](O)CC(=O)N[C@H](CCN)C(=O)N[C@H]1CCNC(=O)[C@H]([C@@H](C)O)NC(=O)[C@H](CCN)NC(=O)[C@H](CCN)NC(=O)[C@H](CC(C)C)NC(=O)[C@@H](Cc2ccccc2)NC(=O)[C@H](CCNC(=O)[C@@H](N)CCCNC(=N)N)NC1=O [compound 6657, 3(R)OH-nC9CO-D-Dab-cyc[L-Dab-L-Dab(L-Arg)-D-Phe-L-Leu-L-Dab-L-Dab-L-Thr]] ({Decanoyl(3R-OH)}-[dDab][Dab][Dab](Arg)[dF]L[Dab][Dab]T; lactam 2-C) | >32 | >32 | >32 | >32 | >32 | >32 | >32 | >32 | 16 (≈ 13.5 µM) | >32 | >32 | >32 | > 300 |
